Laboratory results from article PMC10702058, “Phase I dose escalation study and pilot efficacy analysis of LXI-15029, a novel mTOR dual inhibitor, in Chinese subjects with advanced malignant solid tumors” (BMC Cancer, 2023).
Read-outs that look alike come from different tables or passages of the source.

Test: Plasma pharmacokinetics of LXI-15029 (LC-MS/MS, non-compartmental analysis)
Format: in vivo, human
Description: Blood samples for PK analysis of LXI-15029 were collected on day 1 (pre-dose, 20 min, 40 min, 1 h, 1.5 h, 2 h, 3 h, 4 h, 6 h, 8 h, 12 h, 24 h, and 48 h), cycle 1 day 8 (pre-dose), cycle 1 day 15 (pre-dose), and cycle 1 day 28 (pre-dose, 20 min, 40 min, 1 h, 1.5 h, 2 h, 3 h, 4 h, 6 h, 8 h, and 12 h). The blood samples were stored at -70°C until testing. The concentration of LXI-15029 in plasma was measured using the validated liquid chromatography-tandem mass spectrometry (LC–MS/MS) method. The concentration–time information of LXI-15029 was summarized based on pre-dose and post-dose data of each patient, to explore the linearity of exposure with single dose and steady-state situations, the time to reach steady state and the predictability of single to multiple doses PK. PK parameters were calculated separately for single and repeated doses using descriptive statistics. PK analysis was performed by Covance Central Laboratory using the validated software Phoenix WinNonlin Version 8.1 (Pharsight, Mountain View, CA). A standard non-compartmental method was used to calculate the peak plasma concentration (Cmax), time to reach the Cmax (tmax), the total area under the concentration–time curve (AUC0-∞), and the elimination half-life (t1/2).

[1] = 150-mg BID group, compared with preclinical data
[2] = human, plasma, oral, multiple dose, cycle 1 day 28, 10 mg BID (n = 3), geometric mean (coefficient of variation)
[3] = human, plasma, oral, multiple dose, cycle 1 day 28, 20 mg BID (n = 3), geometric mean (coefficient of variation)
[4] = human, plasma, oral, multiple dose, cycle 1 day 28, 40 mg BID (n = 3), geometric mean (coefficient of variation)
[5] = human, plasma, oral, multiple dose, cycle 1 day 28, 60 mg BID (n = 4), geometric mean (coefficient of variation)

CNC(=O)c1cccc(-c2ccc3c(N4C5CCC4COC5)nc(N4CCOC[C@@H]4C)nc3n2)c1 [LXI-15029]
increase of Cmax and AUC versus dose proportionality (10 to 150 mg, single dose day 1 and cycle 1 day 28): greater than the dose proportionality | exposure relative to the NOAEL in dogs [1]: fivefold higher | exposure relative to the highest non-severely toxic dose (HNSTD) found in rats [1]: threefold higher | Cmax ss versus dose (cycle 1 day 28, 10 to 150 mg): increased with the dose increase | Cmin ss, Cav ss, and AUCss versus dose (cycle 1 day 28, 10 to 150 mg, except for 80 mg): increased with the dose increase | exposure (Cmax and AUC) versus dose (day 1, 10 to 150 mg, except for 80 mg): increased with the dose increase | concentration at 28 day (human, plasma, oral, 10 mg BID, multiple dose, cycle 1 day 28, 10 mg BID (n = 3), geometric mean (coefficient of variation), read-out: Cav ss): 15.9 ng/mL | Tmax at 28 day (human, plasma, oral, 10 mg, multiple dose, cycle 1 day 28, 10 mg BID (n = 3), median (min, max)): 1.02 h | half-life (human, plasma, oral, 10 mg, single dose, cycle 1 day 1, 10 mg BID (n = 3), arithmetic mean ± standard deviation, read-out: t1/2 (converted)): 0.95 ± 0.205 h | Tmax (human, plasma, oral, 10 mg, single dose, cycle 1 day 1, 10 mg BID (n = 3), median (min, max), read-out: Tmax): 0.98 h | concentration at 28 day (human, plasma, oral, 20 mg BID, multiple dose, cycle 1 day 28, 20 mg BID (n = 3), geometric mean (coefficient of variation), read-out: Cav ss): 71.9 ng/mL | concentration at 28 day (human, plasma, oral, 20 mg BID, multiple dose, cycle 1 day 28, 20 mg BID (n = 3), geometric mean (coefficient of variation), read-out: Cmin ss): 1.61 ng/mL | Tmax at 28 day (human, plasma, oral, 20 mg, multiple dose, cycle 1 day 28, 20 mg BID (n = 3), median (min, max)): 1.47 h | half-life (human, plasma, oral, 20 mg, single dose, cycle 1 day 1, 20 mg BID (n = 3), arithmetic mean ± standard deviation, read-out: t1/2 (converted)): 1.47 ± 0.268 h | Tmax (human, plasma, oral, 20 mg, single dose, cycle 1 day 1, 20 mg BID (n = 3), median (min, max), read-out: Tmax): 1 h | concentration at 28 day (human, plasma, oral, 40 mg BID, multiple dose, cycle 1 day 28, 40 mg BID (n = 3), geometric mean (coefficient of variation), read-out: Cav ss): 139 ng/mL | concentration at 28 day (human, plasma, oral, 40 mg BID, multiple dose, cycle 1 day 28, 40 mg BID (n = 3), geometric mean (coefficient of variation), read-out: Cmin ss): 3.74 ng/mL | Tmax at 28 day (human, plasma, oral, 40 mg, multiple dose, cycle 1 day 28, 40 mg BID (n = 3), median (min, max)): 0.67 h | half-life (human, plasma, oral, 40 mg, single dose, cycle 1 day 1, 40 mg BID (n = 3), arithmetic mean ± standard deviation, read-out: t1/2 (converted)): 1.13 ± 0.324 h | AUC(0-t) (human, plasma, oral, 40 mg, single dose, cycle 1 day 1, 40 mg BID (n = 3), geometric mean (coefficient of variation)): 1680 ng·h/mL | Tmax (human, plasma, oral, 40 mg, single dose, cycle 1 day 1, 40 mg BID (n = 3), median (min, max), read-out: Tmax): 0.68 h | concentration at 28 day (human, plasma, oral, 60 mg BID, multiple dose, cycle 1 day 28, 60 mg BID (n = 4), geometric mean (coefficient of variation), read-out: Cav ss): 477 ng/mL | concentration at 28 day (human, plasma, oral, 60 mg BID, multiple dose, cycle 1 day 28, 60 mg BID (n = 4), geometric mean (coefficient of variation), read-out: Cmin ss): 35 ng/mL | Tmax at 28 day (human, plasma, oral, 60 mg, multiple dose, cycle 1 day 28, 60 mg BID (n = 4), median (min, max)): 0.98 h | half-life (human, plasma, oral, 60 mg, single dose, cycle 1 day 1, 60 mg BID (n = 4), arithmetic mean ± standard deviation, read-out: t1/2 (converted)): 2 ± 0.599 h | Tmax (human, plasma, oral, 60 mg, single dose, cycle 1 day 1, 60 mg BID (n = 4), median (min, max), read-out: Tmax): 1.25 h | concentration at 28 day (human, plasma, oral, 80 mg BID, multiple dose, cycle 1 day 28, 80 mg BID (n = 4), geometric mean (coefficient of variation), read-out: Cav ss): 435 ng/mL | concentration at 28 day (human, plasma, oral, 80 mg BID, multiple dose, cycle 1 day 28, 80 mg BID (n = 4), geometric mean (coefficient of variation), read-out: Cmin ss): 6.41 ng/mL | Tmax at 28 day (human, plasma, oral, 80 mg, multiple dose, cycle 1 day 28, 80 mg BID (n = 4), median (min, max)): 1.08 h | half-life (human, plasma, oral, 80 mg, single dose, cycle 1 day 1, 80 mg BID (n = 4), arithmetic mean ± standard deviation, read-out: t1/2 (converted)): 1.33 ± 0.174 h | Tmax (human, plasma, oral, 80 mg, single dose, cycle 1 day 1, 80 mg BID (n = 4), median (min, max), read-out: Tmax): 0.87 h | concentration at 28 day (human, plasma, oral, 110 mg BID, multiple dose, cycle 1 day 28, 110 mg BID (n = 3), geometric mean (coefficient of variation), read-out: Cav ss): 1080 ng/mL | concentration at 28 day (human, plasma, oral, 110 mg BID, multiple dose, cycle 1 day 28, 110 mg BID (n = 3), geometric mean (coefficient of variation), read-out: Cmin ss): 152 ng/mL | Tmax (human, plasma, oral, 110 mg, multiple dose, cycle 1 day 28, 110 mg BID (n = 3), median (min, max), read-out: Tmax ss): 0.67 h | half-life (human, plasma, oral, 110 mg, single dose, cycle 1 day 1, 110 mg BID (n = 3), arithmetic mean ± standard deviation, read-out: t1/2 (converted)): 1.48 ± 0.531 h | Tmax (human, plasma, oral, 110 mg, single dose, cycle 1 day 1, 110 mg BID (n = 3), median (min, max), read-out: Tmax): 0.7 h | concentration at 28 day (human, plasma, oral, 150 mg BID, multiple dose, cycle 1 day 28, 150 mg BID (n = 4), geometric mean (coefficient of variation), read-out: Cav ss): 2120 ng/mL | concentration at 28 day (human, plasma, oral, 150 mg BID, multiple dose, cycle 1 day 28, 150 mg BID (n = 4), geometric mean (coefficient of variation), read-out: Cmin ss): 452 ng/mL | Tmax (human, plasma, oral, 150 mg, multiple dose, cycle 1 day 28, 150 mg BID (n = 4), median (min, max), read-out: Tmax ss): 0.98 h | half-life (human, plasma, oral, 150 mg, single dose, cycle 1 day 1, 150 mg BID (n = 4), arithmetic mean ± standard deviation, read-out: t1/2 (converted)): 1.94 ± 0.706 h | Tmax (human, plasma, oral, 150 mg, single dose, cycle 1 day 1, 150 mg BID (n = 4), median (min, max), read-out: Tmax): 0.82 h | half-life (human, plasma, oral, after multiple dosings, read-out: arithmetic mean of t1/2 across dose cohorts): 1.13 to 3.26 h | half-life (human, plasma, oral, after single dosing, read-out: arithmetic mean of t1/2 across dose cohorts): 0.95 to 2 h | Tmax (human, plasma, oral, cycle 1 day 28, dose range 10 to 150 mg, read-out: median range of Tmax ss): 0.67 to 1.47 h | Tmax (human, plasma, oral, single dose on day 1, across dose groups, read-out: median range of Tmax): 0.68 to 1.25 h | AUC [2]: 191 ng·h/mL | Cmax at 28 day [2]: 115 ng/mL | AUC [3]: 863 ng·h/mL | Cmax at 28 day [3]: 350 ng/mL | AUC [4]: 1670 ng·h/mL | Cmax at 28 day [4]: 1010 ng/mL | AUC [5]: 5730 ng·h/mL | Cmax at 28 day [5]: 1690 ng/mL | AUC (human, plasma, oral, multiple dose, cycle 1 day 28, 80 mg BID (n = 4), geometric mean (coefficient of variation)): 5220 ng·h/mL
